Assay [1] has as its system Mus musculus. As to the kind of experiment: Anti-fibrotic activity in CCl4-induced hepatic fibrosis C57BL/6 mouse model assessed as reduction in collagen deposition in liver at 500 ug/kg, po administered daily for 2 weeks by H and E/Masson's trichrome staining based analysis. The following applies: […]. It is filed as functional, organism-based.
In assay [2] the test system is Mus musculus. Nature of the assay: Anti-fibrotic activity in CCl4-induced hepatic fibrosis C57BL/6 mouse model assessed as reduction in ALT level at 500 ug/kg, po administered daily for 2 weeks. The conditions noted are these: […]. It is filed as functional, organism-based.
Assay [3] relates to Mus musculus. Nature of the assay: Anti-fibrotic activity in CCl4-induced hepatic fibrosis C57BL/6 mouse model assessed as reduction in AST level at 500 ug/kg, po administered daily for 2 weeks. Type of assay: functional, organism-based. The following applies: […].
The target in assay [4] is T1, Vitamin D3 receptor (Homo sapiens) (UniProt P11473).
T1 sequence (whole entry): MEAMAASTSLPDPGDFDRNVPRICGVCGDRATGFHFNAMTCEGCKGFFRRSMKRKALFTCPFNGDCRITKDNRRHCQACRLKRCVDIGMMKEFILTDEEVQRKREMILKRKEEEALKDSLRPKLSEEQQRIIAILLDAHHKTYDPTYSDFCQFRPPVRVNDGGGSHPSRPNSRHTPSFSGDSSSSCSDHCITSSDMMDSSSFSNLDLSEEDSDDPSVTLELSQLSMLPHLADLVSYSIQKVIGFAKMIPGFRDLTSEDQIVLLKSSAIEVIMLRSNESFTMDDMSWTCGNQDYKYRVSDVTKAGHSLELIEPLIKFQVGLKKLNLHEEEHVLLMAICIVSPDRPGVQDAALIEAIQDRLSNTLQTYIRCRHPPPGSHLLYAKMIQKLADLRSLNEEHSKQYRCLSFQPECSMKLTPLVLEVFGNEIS
As to the kind of experiment: Agonist activity at VDR in human LX2 cells assessed as increase in CYP24A1 level at 0.5 uM by qRT-PCR analysis. It is filed as cell-based. The following applies: filed as agonist. On the technique in general: In qPCR the cycle at which signal appears reflects the starting amount.

Assay [5] concerns LX-2. Nature of the assay: Inhibition of HSC activation in TGF-beta1-treated human LX2 cells assessed as decrease in COL1A1 mRNA level at 0.5 uM incubated for 24 hrs by qPCR analysis. Type of assay: functional, cell-based.
The subject of assay [6] is Mus musculus. As to the kind of experiment: Anti-fibrotic activity in CCl4-induced hepatic fibrosis C57BL/6 mouse model assessed as reduction in TBA level at 500 ug/kg, po administered daily for 2 weeks. Type of assay: functional, organism-based. The conditions noted are these: […].
Assay [7] relates to LX-2. Nature of the assay: Inhibition of HSC activation in TGF-beta1-treated human LX2 cells assessed as decrease in collagen-I level at 0.5 uM incubated for 24 hrs by Western blot analysis. Type of assay: functional, cell-based. A general note: In western blotting, separated proteins are transferred to a membrane and probed.
Assay [8] deals with Mus musculus. Nature of the assay: Anti-fibrotic activity in CCl4-induced hepatic fibrosis C57BL/6 mouse model assessed as decrease in Timp-1 mRNA level in liver at 500 ug/kg, po administered daily for 2 weeks by qPCR analysis. Type of assay: functional, organism-based. The conditions noted are these: […].
For assay [9], the system named is Mus musculus. As to the kind of experiment: Anti-fibrotic activity in CCl4-induced hepatic fibrosis C57BL/6 mouse model assessed as decrease in Ctgf mRNA level in liver at 500 ug/kg, po administered daily for 2 weeks by qPCR analysis. It is filed as functional, organism-based. The conditions noted are these: […].
For assay [10], the system named is LX-2. As to the kind of experiment: Inhibition of HSC activation in TGF-beta1-treated human LX2 cells assessed as decrease in alpha-SMA level at 0.5 uM incubated for 24 hrs by Western blot analysis. It is filed as functional, cell-based.
Assay [11] deals with LX-2. Nature of the assay: Inhibition of HSC activation in TGF-beta1-treated human LX2 cells harboring VDR siRNA assessed as decrease in alpha-SMA level at 0.5 uM incubated for 24 hrs by Western blot analysis. Type of assay: functional, cell-based.
Assay [12] has as its system LX-2. Nature of the assay: Inhibition of HSC activation in TGF-beta1-treated human LX2 cells harboring VDR siRNA assessed as decrease in collagen-I level at 0.5 uM incubated for 24 hrs by Western blot analysis. It is filed as functional, cell-based.
Assay [13] has as its system LX-2. As to the kind of experiment: Inhibition of HSC activation in TGF-beta1-treated human LX2 cells assessed as decrease in ACTA2 mRNA level at 0.5 uM incubated for 24 hrs by qPCR analysis. Type of assay: functional, cell-based.
Assay [14] has as its system Mus musculus. Nature of the assay: Anti-fibrotic activity in CCl4-induced hepatic fibrosis C57BL/6 mouse model assessed as reduction in alpha-SMA level in liver at 500 ug/kg, po administered daily for 2 weeks by immunofluorescence based analysis. It is filed as functional, organism-based. The conditions noted are these: […].
The target of assay [15] is T1, Vitamin D3 receptor (Homo sapiens). As to the kind of experiment: Binding affinity to full-length VDR (unknown origin) at 1 uM by fluorescence polarization assay relative to control. The following applies: filed as agonist. Background: Polarisation of emitted light reports the rotation of a fluorescent probe.
Assay [16] concerns Mus musculus. As to the kind of experiment: Anti-fibrotic activity in CCl4-induced hepatic fibrosis C57BL/6 mouse model assessed as reduction in hepatic lesion in liver at 500 ug/kg, po administered daily for 2 weeks by H and E/Masson's trichrome staining based analysis. The following applies: […]. It is filed as functional, organism-based.
Assay [17] relates to Mus musculus. As to the kind of experiment: Anti-fibrotic activity in CCl4-induced hepatic fibrosis C57BL/6 mouse model assessed as increase in IL-10 level in liver at 500 ug/kg, po administered daily for 2 weeks by ELISA. It is filed as functional, organism-based. The conditions noted are these: […].
Assay [18] addresses T1, Vitamin D3 receptor (Homo sapiens). Nature of the assay: Agonist activity at human VDR in HEK293 cells co-expressing 3-Luc/RXRalpha assessed as transcriptional activity at 0.5 uM by dual luciferase reporter assay. The following applies: filed as agonist. It is filed as cell-based.
For assay [19], the system named is Mus musculus. As to the kind of experiment: Anti-fibrotic activity in CCl4-induced hepatic fibrosis C57BL/6 mouse model assessed as reduction in IL-1beta level in liver at 500 ug/kg, po administered daily for 2 weeks by ELISA. Type of assay: functional, organism-based. The following applies: […].
Assay [20] relates to Mus musculus. Nature of the assay: Anti-fibrotic activity in CCl4-induced hepatic fibrosis C57BL/6 mouse model assessed as decrease in Fn mRNA level in liver at 500 ug/kg, po administered daily for 2 weeks by qPCR analysis. It is filed as functional, organism-based. The conditions noted are these: […].
For assay [21], the system named is Mus musculus. As to the kind of experiment: Anti-fibrotic activity in CCl4-induced hepatic fibrosis C57BL/6 mouse model assessed as prevention of serum calcium level elevation at 500 ug/kg, po administered daily for 2 weeks. Type of assay: functional, organism-based.

The source made the active and inactive calls. No cut-off for these calls is given here.

Take `CCC(OC(=O)C1=C[C@@H](O)[C@@H](O)[C@H](O)C1)c1cccc(OCCCC(O)(CC)CC)c1` (stereo partly specified): the outcome (in the assay on Mus musculus [1]; in the assay on Mus musculus [2]; in the assay with Mus musculus [3]; in assay [4]; in the assay with Mus musculus [6]; in the assay with Mus musculus [8]) was Active. Further, the outcome (in the assay on Mus musculus [9]; in the assay on Mus musculus [14]; in the assay with Mus musculus [16]; in the assay on Mus musculus [17]; in assay [18]; in the assay on Mus musculus [19]) was Active. Moreover, the outcome in the assay on Mus musculus [20] and in the assay on Mus musculus [21] was Active. In addition, the inhibition entry in the assay with LX-2 [5], with LX-2 [7], in the assay on LX-2 [10] and with LX-2 [13] was “Active” each time. Moreover, the inhibition result with LX-2 [11] and with LX-2 [12] was “inactive” throughout. Further, in [15], the Activity was determined as 84%.

The record behind these values is ChEMBL document CHEMBL6153077, “Design, synthesis, and anti-liver fibrosis activity of novel non-steroidal vitamin D receptor agonists based on open-ring steroid scaffold” (Eur J Med Chem, 2025).
